The text below walks through data of patent US12257247B2 (Monte Rosa Therapeutics AG, priority 2023, dated 2025).

Where two headings read alike, the source gives them in different places.

In the test the target is T1, VAV1 (Homo sapiens, UniProt P15498+Q96SW2).
T1 construct: A heterozygous VAV1 C-terminal HiBiT knock-in pool was generated at Monte Rosa Therapeutics from a clonal Jurkat cell; endogenous in cells; host or cells: Jurkat clone stably expressing LgBiT, homozygous GSPT1-G575N; heterozygous VAV1-HiBiT knock-in pool
Briefly: VAV1 degradation activity, VAV1-HiBiT knock-in Jurkat luminescence assay (Example A, Table 1). It is filed as cell-based. The note with it: VAV1-HiBiT knock-in Jurkat cells, luminescence read at 6 and 24 hours; for Dmax: Jurkat. In outline: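 Jurkat cells carrying VAV1-HiBiT knock-in, plated in RPMI/10% FBS with Endurazine live-cell substrate and pre-incubated ~16 h at 37° C. Compound dosed from 10 μM stock; luminescence read 6 and 24 h later. Response normalised to plate negative/positive controls, EC50 from 3-parameter logistic fit (hillslope 1).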
For orientation: HiBiT is a short tag that completes a luciferase, so light tracks the accessible tagged protein.

[1] abbreviates: read-out: VAV1 DC50 (nM), class.

`CN1CC(Cc2ccc(-c3cccc(C4CCC(=O)NC4=O)c3Cl)cc2)OC1=O` (stereo not drawn) [Compound 454, 3-(2-chloro-4′-((3-methyl-2-oxooxazolidin-5-yl)methyl)-[1,1′-biphenyl]-3-yl)piperidine-2,6-dione]: the Dmax (in general, the greatest extent of degradation seen) was 68.3% (read-out: VAV1 Dmax %) and 60 to 90% (read-out: VAV1 Dmax %, class). The DC50 (usually the midpoint of the concentration-degradation curve) is, setting by setting: (read-out: VAV1 DC50) 140 nM; under setting [1], 100 to 1000 nM.
In the same order, the values of `O=C1CCC(c2cccc(-c3ccc(Cc4ccon4)cc3)c2Cl)C(=O)N1` (stereo not drawn) [Compound 455, 3-(2-chloro-4′-(isoxazol-3-ylmethyl)-[1,1′-biphenyl]-3-yl)piperidine-2,6-dione] are 95.5%, more than 90%, 15.2 nM and not above 100 nM.
With `O=C1CCC(c2cccc(-c3ccc(N4Cc5ccccc5C4=O)cc3)c2Cl)C(=O)N1` (stereo not drawn) [Compound 456, 3-(2-chloro-4′-(1-oxoisoindolin-2-yl)-[1,1′-biphenyl]-3-yl)piperidine-2,6-dione], the Dmax was 61% (read-out: VAV1 Dmax %) and 60 to 90% (read-out: VAV1 Dmax %, class). The DC50 (read-out: VAV1 DC50) is 1560 nM and the 50% degradation concentration (DC50) under setting [1] is more than 1000 nM.
Regarding `O=C1CCC(c2cccc(-c3ccc(N4C(=O)CCC45CCC5)cc3)c2Cl)C(=O)N1` (stereo not drawn) [Compound 457, 3-(2-chloro-4′-(6-oxo-5-azaspiro[3.4]octan-5-yl)-[1,1′-biphenyl]-3-yl)piperidine-2,6-dione], the Dmax (read-out: VAV1 Dmax %) worked out at 98.2% and the Dmax (read-out: VAV1 Dmax %, class) is more than 90%. The DC50 reads like this: (read-out: VAV1 DC50) 2.78 nM; under setting [1], not above 100 nM.
In the same order, the values of `O=C1CCC(c2cccc(-c3ccc(-c4cccn(CC(F)(F)F)c4=O)cc3)c2Cl)C(=O)N1` (stereo not drawn) [Compound 458, 3-(2-chloro-4′-(2-oxo-1-(2,2,2-trifluoroethyl)-1,2-dihydropyridin-3-yl)-[1,1′-biphenyl]-3-yl)piperidine-2,6-dione] are 98.6%, more than 90%, 4.79 nM and not above 100 nM.
In the same order, the values of `O=C1CCC(c2cccc(-c3ccc(N4CCCCC4)cc3)c2Cl)C(=O)N1` (stereo not drawn) [Compound 459, 3-(2-chloro-4′-(piperidin-1-yl)-[1,1′-biphenyl]-3-yl)piperidine-2,6-dione] are 84.4%, 60 to 90%, 122 nM and 100 to 1000 nM.
As to `O=C1CCC(c2cccc(-c3ccc(-c4cccc5ocnc45)cc3)c2Cl)C(=O)N1` (stereo not drawn) [Compound 460, 3-(4′-(benzo[d]oxazol-4-yl)-2-chloro-[1,1′-biphenyl]-3-yl)piperidine-2,6-dione], the Dmax (read-out: VAV1 Dmax %) amounted to 89.9% and the Dmax (read-out: VAV1 Dmax %, class) was in the range of 60 to 90%. For the same compound, the DC50 is, setting by setting: (read-out: VAV1 DC50) 277 nM; under setting [1], 100 to 1000 nM.
In the same order, the values of `O=C1CCC(c2cccc(-c3ccc(N4CCCCC4=O)c(F)c3)c2Cl)C(=O)N1` (stereo not drawn) [Compound 461, 3-(2-chloro-3′-fluoro-4′-(2-oxopiperidin-1-yl)-[1,1′-biphenyl]-3-yl)piperidine-2,6-dione] are 96.2%, more than 90%, 10.1 nM and not above 100 nM.
The matching figures for `[2H]c1c([2H])c(-n2ccccc2=O)c([2H])c([2H])c1-c1cccc(C2CCC(=O)NC2=O)c1Cl` (stereo not drawn) [Compound 462, 3-(2-chloro-3-(2,3,5,6-tetradeuterio-4-(2-oxo-1-pyridyl)phenyl)phenyl)piperidine-2,6-dione]: 95.5%, more than 90%, 14.8 nM and not above 100 nM.
On to `O=C1CCC(c2cccc(-c3ccc(N4C(=O)CCCC4C(F)F)cc3)c2Cl)C(=O)N1` (stereo not drawn) [Compound 463, 3-(2-chloro-4′-(2-(difluoromethyl)-6-oxopiperidin-1-yl)-[1,1′-biphenyl]-3-yl)piperidine-2,6-dione], for which the Dmax runs as follows: (read-out: VAV1 Dmax %) 95.7%; (read-out: VAV1 Dmax %, class) more than 90%. Also, the DC50 reads like this: (read-out: VAV1 DC50) 7.16 nM; under setting [1], not above 100 nM.
The matching figures for `O=C1CCC(c2cccc(-c3ccc(N4CCC(F)(F)CC4=O)cc3)c2Cl)C(=O)N1` (stereo not drawn) [Compound 464, 3-(2-chloro-4′-(4,4-difluoro-2-oxopiperidin-1-yl)-[1,1′-biphenyl]-3-yl)piperidine-2,6-dione]: 94.8%, more than 90%, 9.46 nM and not above 100 nM.
On to `O=C1CCC(c2cccc(-c3ccc(N4Cc5cccnc5C4=O)cc3)c2Cl)C(=O)N1` (stereo not drawn) [Compound 465, 3-(2-chloro-4′-(7-oxo-5,7-dihydro-6H-pyrrolo[3,4-b]pyridin-6-yl)-[1,1′-biphenyl]-3-yl)piperidine-2,6-dione], for which the Dmax was 39.9% (read-out: VAV1 Dmax %) and less than 60% (read-out: VAV1 Dmax %, class). Besides, the DC50 reads like this: (read-out: VAV1 DC50) not below 10000 nM; under setting [1], more than 1000 nM.
Take `O=C1CCC(c2cccc(-c3ccc(N4Cc5ncccc5C4=O)cc3)c2Cl)C(=O)N1` (stereo not drawn) [Compound 466, 3-(2-chloro-4′-(5-oxo-5,7-dihydro-6H-pyrrolo[3,4-b]pyridin-6-yl)-[1,1′-biphenyl]-3-yl)piperidine-2,6-dione]: the Dmax is 35.2% (read-out: VAV1 Dmax %) and less than 60% (read-out: VAV1 Dmax %, class). Besides, the DC50 was not below 10000 nM (read-out: VAV1 DC50) and more than 1000 nM under setting [1].
In the same order, the values of `O=C1CCC(c2cccc(-c3ccc(N4COCCC4=O)cc3)c2Cl)C(=O)N1` (stereo not drawn) [Compound 467, 3-(2-chloro-4′-(4-oxo-1,3-oxazinan-3-yl)-[1,1′-biphenyl]-3-yl)piperidine-2,6-dione] are 95%, more than 90%, 11.5 nM and not above 100 nM.
For the compound `O=C1CCC(c2cccc(-c3ccc(N4C(=O)Cc5ccccc54)cc3)c2Cl)C(=O)N1` (stereo not drawn) [Compound 468, 3-(2-chloro-4′-(2-oxoindolin-1-yl)-[1,1′-biphenyl]-3-yl)piperidine-2,6-dione], the Dmax is 96.2% (read-out: VAV1 Dmax %) and more than 90% (read-out: VAV1 Dmax %, class). Moreover, the DC50 was 24.8 nM (read-out: VAV1 DC50) and not above 100 nM under setting [1].
The matching figures for `O=C1CCC(c2cccc(-c3ccc(N4CCCCC4C(F)F)cc3)c2Cl)C(=O)N1` (stereo not drawn) [Compound 469, 3-(2-chloro-4′-(2-(difluoromethyl)piperidin-1-yl)-[1,1′-biphenyl]-3-yl)piperidine-2,6-dione]: 79.4%, 60 to 90%, 266 nM and 100 to 1000 nM.
The matching figures for `O=C1CCC(c2cccc(-c3ccc(-n4ccccc4=O)c(F)c3)c2Cl)C(=O)N1` (stereo not drawn) [Compound 470, 3-(2-chloro-3′-fluoro-4′-(2-oxopyridin-1(2H)-yl)-[1,1′-biphenyl]-3-yl)piperidine-2,6-dione]: 97.1%, more than 90%, 9.19 nM and not above 100 nM.
In the same order, the values of `O=C1CCC(c2cccc(-c3ccc(-n4cccnc4=O)cc3)c2Cl)C(=O)N1` (stereo not drawn) [Compound 471, 3-(2-chloro-4′-(2-oxopyrimidin-1(2H)-yl)-[1,1′-biphenyl]-3-yl)piperidine-2,6-dione] are 92.8%, more than 90%, 24.1 nM and not above 100 nM.
On to `O=C1CCC(c2cccc(-c3ccc(Cc4ncco4)cc3)c2Cl)C(=O)N1` (stereo not drawn) [Compound 472, 3-(2-chloro-4′-(oxazol-2-ylmethyl)-[1,1′-biphenyl]-3-yl)piperidine-2,6-dione], for which the Dmax reads like this: (read-out: VAV1 Dmax %) 96.7%; (read-out: VAV1 Dmax %, class) more than 90%. Also, the DC50 (read-out: VAV1 DC50) was determined as 8.25 nM and the DC50 under setting [1] is not above 100 nM.
In the case of `Cc1nc(Cc2ccc(-c3cccc(C4CCC(=O)NC4=O)c3Cl)cc2)no1` (stereo not drawn) [Compound 473, 3-(2-chloro-4′-((5-methyl-1,2,4-oxadiazol-3-yl)methyl)-[1,1′-biphenyl]-3-yl)piperidine-2,6-dione], the Dmax was 96.2% (read-out: VAV1 Dmax %) and more than 90% (read-out: VAV1 Dmax %, class). For the same compound, the DC50 by setting is: (read-out: VAV1 DC50) 9.34 nM; under setting [1], not above 100 nM.
In the same order, the values of `O=C1CCC(c2cccc(-c3cnc(-n4ccccc4=O)nc3)c2Cl)C(=O)N1` (stereo not drawn) [Compound 474, 3-(2-chloro-3-(2-(2-oxopyridin-1(2H)-yl)pyrimidin-5-yl)phenyl)piperidine-2,6-dione] are 35.3%, less than 60%, not below 10000 nM and more than 1000 nM.
Take `CN(C(=O)c1ccn(C)n1)c1ccc(-c2cccc(C3CCC(=O)NC3=O)c2Cl)cc1` (stereo not drawn) [Compound 475, N-(2′-chloro-3′-(2,6-dioxopiperidin-3-yl)-[1,1′-biphenyl]-4-yl)-N, 1-dimethyl-1H-pyrazole-3-carboxamide]: the Dmax (read-out: VAV1 Dmax %) came out at 73.2% and the Dmax (read-out: VAV1 Dmax %, class) was 60 to 90%. For the same compound, the DC50 is, setting by setting: (read-out: VAV1 DC50) 98.9 nM; under setting [1], not above 100 nM.
In the case of `O=C1CCC(c2cccc(-c3ccc(N4CCCCC4C(F)(F)F)cc3)c2Cl)C(=O)N1` (stereo not drawn) [Compound 476], the Dmax is 84% (read-out: VAV1 Dmax %) and 60 to 90% (read-out: VAV1 Dmax %, class). Further, the DC50 runs as follows: (read-out: VAV1 DC50) 397 nM; under setting [1], 100 to 1000 nM.
In the case of `O=C1CCC(c2cccc(-c3ccc(-n4ccccc4=O)nc3)c2Cl)C(=O)N1` (stereo not drawn) [Compound 477, 3-(2-chloro-3-(2-oxo-2H-[1,2′-bipyridin]-5′-yl)phenyl)piperidine-2,6-dione], the Dmax reads like this: (read-out: VAV1 Dmax %) 88.7%; (read-out: VAV1 Dmax %, class) 60 to 90%. Also, the DC50 is, setting by setting: (read-out: VAV1 DC50) 65.6 nM; under setting [1], not above 100 nM.
